Experimental data taken from patent US11051515B2, “3-acyl-benzamides and their use as herbicides” (Bayer Aktiengesellschaft, priority 2017, dated 2021).

Experiments:
[1] = tested on: ECHCG; assay: Pre-emergence action against ECHCG; type: in vivo, Echinochloa crus-galli; conditions: pre-emergence, dosage 320 g/ha, scored visually after 3 weeks vs untreated controls
Outline: (§1)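 Seeds sown in sandy loam in wood-fiber pots and covered with soil. Greenhouse growth; visual damage scored after 3 weeks versus untreated controls (100% = dead, 0% = like control).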

[2] = tested on: ALOMY; assay: Post-emergence action against ALOMY; type: in vivo, Alopecurus myosuroides; conditions: Dosage 80 g/ha, post-emergence
Outline: (§2)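 Post-emergence foliar spray on greenhouse plants at the one-leaf stage, using wettable-powder or emulsion-concentrate formulations in water (600 to […], plus 0.2% wetting agent). Damage scored by eye roughly 3 weeks later against untreated plants: 0% = like control, 100% = dead.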

[3] = tested on: ABUTH; assay: Post-emergence action against ABUTH; type: in vivo, Abutilon theophrasti; conditions: post-emergence, dosage 80 g/ha, visual assessment about 3 weeks after treatment vs untreated controls
Outline: as §2

[4] = tested on: STEME; assay: Pre-emergence action against STEME; type: in vivo, Stellaria media; conditions: Dosage 320 g/ha, pre-emergence
Outline: as §1

[5] = tested on: MATIN; assay: Pre-emergence action against MATIN; type: in vivo, Matricaria inodora; conditions: Dosage 320 g/ha, pre-emergence
Outline: as §1

[6] = tested on: VIOTR; assay: Pre-emergence action against VIOTR; type: in vivo, Viola tricolor; conditions: Dosage 320 g/ha, pre-emergence
Outline: as §1

[7] = tested on: MATIN; assay: Post-emergence action against MATIN; type: in vivo, Matricaria inodora; conditions: post-emergence, dosage 80 g/ha, visual assessment about 3 weeks after treatment vs untreated controls
Outline: as §2

[8] = tested on: PHBPU; assay: Post-emergence action against PHBPU; type: in vivo, Pharbitis purpurea; conditions: post-emergence, dosage 80 g/ha
Outline: as §2

[9] = tested on: AVEFA; assay: Pre-emergence action against AVEFA; type: in vivo, Avena fatua; conditions: dosage 320 g/ha, scored visually after 3 weeks vs untreated controls
Outline: as §1

[10] = tested on: AVEFA; assay: Post-emergence action against AVEFA; type: in vivo, Avena fatua; conditions: post-emergence, dosage 80 g/ha, visual assessment about 3 weeks after treatment vs untreated controls
Outline: as §2

[11] = tested on: VIOTR; assay: Post-emergence action against VIOTR; type: in vivo, Viola tricolor; conditions: post-emergence, dosage 80 g/ha
Outline: as §2

[12] = tested on: SETVI; assay: Post-emergence action against SETVI; type: in vivo, Setaria viridis; conditions: post-emergence, dosage 80 g/ha, visual assessment about 3 weeks after treatment vs untreated controls
Outline: as §2

[13] = tested on: LOLMU; assay: Post-emergence action against LOLMU; type: in vivo, Lolium multiflorum; conditions: dosage 80 g/ha, visual assessment about 3 weeks after treatment vs untreated controls
Procedure: Seeds of monocotyledonous and dicotyledonous weed and crop plants are laid out in sandy loam soil in wood-fiber pots, covered with soil and cultivated in a greenhouse under good growth conditions. 2 to 3 weeks after sowing, the test plants are treated at the one-leaf stage. The compounds of the invention, formulated in the form of wettable powders (WP) or as emulsion concentrates (EC), are then sprayed onto the green parts of the plants in the form of an aqueous suspension or emulsion at a water application rate equating to […], with addition of 0.2% wetting agent. After the test plants have been left to stand in the greenhouse under optimal growth conditions for about 3 weeks, the action of the preparations is assessed visually in comparison to untreated controls (herbicidal action in percent (%): 100% activity=the plants have died, 0% activity=like control plants). […] At the same time, inventive compounds leave Gramineae crops such as barley, wheat, rye, millet/Sorghum, corn or rice virtually undamaged when applied post-emergence, even at high active ingredient dosages. In addition, some substances are also harmless to dicotyledonous crops such as soya, cotton, oilseed rape, sugar beet or potatoes. Some of the compounds according to the invention have high selectivity and are therefore suitable for controlling unwanted vegetation in agricultural crops by the post-emergence method. The data of Tables B18 to B34 below illustrate, in an exemplary manner, the […] herbicidal action of the compounds according to the invention, the herbicidal activity being stated in percent.

[14] = tested on: VERPE; assay: Pre-emergence action against VERPE; type: in vivo, Veronica persica; conditions: Dosage 320 g/ha, pre-emergence
Outline: as §1

[15] = tested on: ALOMY; assay: Pre-emergence action against ALOMY; type: in vivo, Alopecurus myosuroides; conditions: dosage 320 g/ha, pre-emergence, scored visually after 3 weeks vs untreated controls, 100% = plants have died, 0% = like control plants
Outline: as §1

[16] = tested on: ABUTH; assay: Pre-emergence action against ABUTH; type: in vivo, Abutilon theophrasti; conditions: pre-emergence, dosage 320 g/ha, scored visually after 3 weeks vs untreated controls
Outline: as §1

[17] = tested on: LOLMU; assay: Pre-emergence action against LOLMU; type: in vivo, Lolium multiflorum; conditions: dosage 320 g/ha, scored visually after 3 weeks vs untreated controls
Outline: as §1

[18] = tested on: POLCO; assay: Pre-emergence action against POLCO; type: in vivo, Polygonum convolvulus; conditions: Fallopia convolvulus, 504 h; Dosage 320 g/ha, pre-emergence
Outline: as §1

[19] = tested on: STEME; assay: Post-emergence action against STEME; type: in vivo, Stellaria media; conditions: Stellaria media, 504 h; post-emergence, dosage 80 g/ha
Outline: as §2

[20] = tested on: AMARE; assay: Pre-emergence action against AMARE; type: in vivo, Amaranthus retroflexus; conditions: pre-emergence, dosage 320 g/ha, scored visually after 3 weeks vs untreated controls
Outline: as §1

[21] = tested on: ECHCG; assay: Post-emergence action against ECHCG; type: in vivo, Echinochloa crus-galli; conditions: post-emergence, dosage 80 g/ha, visual assessment about 3 weeks after treatment vs untreated controls
Outline: as §2

[22] = tested on: SETVI; assay: Pre-emergence action against SETVI; type: in vivo, Setaria viridis; conditions: pre-emergence, dosage 320 g/ha, scored visually after 3 weeks vs untreated controls
Outline: as §1

[23] = tested on: AMARE; assay: Post-emergence action against AMARE; type: in vivo, Amaranthus retroflexus; conditions: post-emergence, dosage 80 g/ha, visual assessment about 3 weeks after treatment vs untreated controls
Outline: as §2

[24] = tested on: CYPES; assay: Pre-emergence action against CYPES; type: in vivo, Cyperus esculentus; conditions: pre-emergence, dosage 320 g/ha, scored visually after 3 weeks vs untreated controls
Outline: as §1

[25] = tested on: POLCO; assay: Post-emergence action against POLCO; type: in vivo, Polygonum convolvulus; conditions: post-emergence, dosage 80 g/ha
Outline: as §2

[26] = tested on: PHBPU; assay: Pre-emergence action against PHBPU; type: in vivo, Pharbitis purpurea; conditions: Dosage 320 g/ha, pre-emergence
Outline: as §1

[27] = tested on: VERPE; assay: Post-emergence action against VERPE; type: in vivo, Veronica persica; conditions: dosage 80 g/ha
Outline: as §2

SMILES: Cn1nnnc1NC(=O)c1ccc(Cl)c(C(=O)C2CC2)c1Cl [1-116]
- pest or weed control at 320 g/ha ([1]; Echinochloa crus-galli, 504 h, read-out: Pre-emergence action against ECHCG (herbicidal activity)): 100%
- pest or weed control at 80 g/ha ([2]; Alopecurus myosuroides, 504 h): 90%
- pest or weed control at 80 g/ha ([3]; Abutilon theophrasti, 504 h, read-out: Post-emergence action against ABUTH (herbicidal action in percent)): 90%
- pest or weed control at 320 g/ha ([4]; Stellaria media, 504 h): 90%
- pest or weed control at 320 g/ha ([5]; Tripleurospermum inodorum, 504 h): 100%
- pest or weed control at 320 g/ha ([6]; Viola tricolor, 504 h): 100%
- pest or weed control at 80 g/ha ([7]; Tripleurospermum inodorum, 504 h, read-out: Post-emergence action against MATIN (herbicidal action in percent)): 90%
- pest or weed control at 80 g/ha ([8]; Ipomoea purpurea, 504 h): 90%
- pest or weed control at 320 g/ha ([9]; Avena fatua, 504 h, read-out: Pre-emergence action against AVEFA (herbicidal activity)): 100%
- pest or weed control at 80 g/ha ([10]; Avena fatua, 504 h, read-out: Post-emergence action against AVEFA (herbicidal action in percent)): 100%
- pest or weed control at 80 g/ha ([11]; Viola tricolor, 504 h): 90%
- pest or weed control at 80 g/ha ([12]; Setaria viridis, 504 h, read-out: Post-emergence action against SETVI (herbicidal action in percent)): 100%
- pest or weed control at 80 g/ha ([13]; Lolium multiflorum, 504 h, read-out: Post-emergence action against LOLMU (herbicidal action in percent)): 100%
- pest or weed control at 320 g/ha ([14]; Veronica persica, 504 h): 100%
- pest or weed control at 320 g/ha ([15]; Alopecurus myosuroides, 504 h, read-out: Pre-emergence action against ALOMY (herbicidal activity in percent)): 100%
- pest or weed control at 320 g/ha ([16]; Abutilon theophrasti, 504 h, read-out: Pre-emergence action against ABUTH (herbicidal activity)): 90%
- pest or weed control at 320 g/ha ([17]; Lolium multiflorum, 504 h, read-out: Pre-emergence action against LOLMU (herbicidal activity)): 100%
- pest or weed control at 320 g/ha [18]: 90%
- pest or weed control at 80 g/ha [19]: 100%
- pest or weed control at 320 g/ha ([20]; Amaranthus retroflexus, 504 h, read-out: Pre-emergence action against AMARE (herbicidal activity)): 100%
- pest or weed control at 80 g/ha ([21]; Echinochloa crus-galli, 504 h, read-out: Post-emergence action against ECHCG (herbicidal action in percent)): 90%
- pest or weed control at 320 g/ha ([22]; Setaria viridis, 504 h, read-out: SETVI (Table B8, pre-emergence herbicidal activity)): 100%
- pest or weed control at 80 g/ha ([23]; Amaranthus retroflexus, 504 h, read-out: Post-emergence action against AMARE (herbicidal action in percent)): 90%

SMILES: CCn1nnnc1NC(=O)c1ccc(C(F)(F)F)c(C(=O)C2CC2)c1Cl [2-141]
- Pre-emergence action against ECHCG (herbicidal activity) [1]: 100%
- Post-emergence action against ALOMY [2]: 90%
- Post-emergence action against ABUTH (herbicidal action in percent) [3]: 90%
- Pre-emergence action against STEME [4]: 90%
- Pre-emergence action against MATIN [5]: 100%
- Pre-emergence action against VIOTR [6]: 100%
- Post-emergence action against MATIN (herbicidal action in percent) [7]: 80%
- Post-emergence action against PHBPU [8]: 90
- Pre-emergence action against AVEFA (herbicidal activity) [9]: 100%
- Pre-emergence action against CYPES (herbicidal activity) [24]: 90%
- Post-emergence action against POLCO [25]: 90
- Post-emergence action against AVEFA (herbicidal action in percent) [10]: 90%
- Post-emergence action against VIOTR [11]: 100
- Pre-emergence action against PHBPU [26]: 80%
- Post-emergence action against SETVI (herbicidal action in percent) [12]: 90%
- Post-emergence action against LOLMU (herbicidal action in percent) [13]: 90%
- Pre-emergence action against VERPE [14]: 100%
- Pre-emergence action against ALOMY (herbicidal activity in percent) [15]: 100%
- Pre-emergence action against ABUTH (herbicidal activity) [16]: 100%
- Pre-emergence action against LOLMU (herbicidal activity) [17]: 100%
- Pre-emergence action against AMARE (herbicidal activity) [20]: 100%
- Post-emergence action against ECHCG (herbicidal action in percent) [21]: 90%
- Post-emergence action against VERPE [27]: 80
- SETVI (Table B8, pre-emergence herbicidal activity) [22]: 100%
- Post-emergence action against AMARE (herbicidal action in percent) [23]: 90%
